# Values of other authors, collected in PMC13366575, “Structure−Activity Relationships among Inhibitors of Acinetobacter baumannii and Klebsiella pneumoniae 1-Deoxy-D-xylulose 5-Phosphate Reductoisomerase (DXR/IspC) − A Promising Target for Antibiotic Development” (ACS Infectious Diseases, 2026).
# Target: KpIspC (Klebsiella pneumoniae, UniProt A6T4X5)
# Sequence (A6T4X5 entry or part of it): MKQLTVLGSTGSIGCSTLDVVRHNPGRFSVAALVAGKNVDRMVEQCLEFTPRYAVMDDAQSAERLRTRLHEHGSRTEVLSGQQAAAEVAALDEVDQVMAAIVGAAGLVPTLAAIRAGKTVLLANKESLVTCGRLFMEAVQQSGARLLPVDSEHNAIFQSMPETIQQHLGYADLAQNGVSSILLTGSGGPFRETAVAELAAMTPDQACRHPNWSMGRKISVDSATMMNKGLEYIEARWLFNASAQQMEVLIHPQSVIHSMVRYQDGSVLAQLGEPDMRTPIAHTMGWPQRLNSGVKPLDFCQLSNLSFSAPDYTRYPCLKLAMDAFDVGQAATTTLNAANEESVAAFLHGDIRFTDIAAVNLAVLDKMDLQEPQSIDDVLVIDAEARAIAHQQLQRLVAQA
structure (smiles),measurement,value
"O=CN(O)CCCP(=O)(O)O [Compound 1a, Fosmidomycin]",IC50,20 nM
